This test is described as follows: hydrogen sulfide scavenging in sour Isopar M solvent. Conditions: sour Isopar M solvent with 4000 ppm H2S, scavenger dose per sample in the 5th table. On the procedure: Further testing was performed to compare the hydrogen sulfide scavenging properties of an exemplary embodiment of the multipurpose process chemical compared to conventional scavengers.
A sour Isopar™ M solvent was obtained with 4000 ppm hydrogen sulfide (H2S). Samples were obtained by mixing the following with the sour Isopar™ M solvent:
The control and Samples V-A through V-F were stirred for twenty-four (24) hours at ambient temperature (˜71° F.). […] The table below summarizes the hydrogen sulfide scavenging observed for each sample: […]

Consider `CC1COC(=O)O1` (centres unmarked) [Sample V-C, propylene carbonate], for which, for the setting “24 hours, ambient temperature”, the “% H2S reduction” value stood at 0%. Besides, the “H2S at 24 hours (ppm)” value (stirred 24 hours at ambient temperature (~71 F), control 3,500 ppm) is 3,500 ppm.

The record behind these values is patent US20250002785A1, “MULTIPURPOSE IMIDAZOLINE-BASED PROCESS CHEMICALS” (Baker Hughes Oilfield Operations LLC, priority 2023, published 2025).
